In paper PMC8703412 (Pharmaceuticals, 2021):
In brackets after ≈: the same amount, converted by molar mass. Read-outs that look alike come from different tables or passages of the source.

Assays:
Experiment in all cases: microbe, parasite or virus in culture
Assay type in all cases: cell-based, Mycobacterium tuberculosis
Conditions in all cases: for MIC: Mycobacterium tuberculosis
Mtb. 9449/2007 (MDR-TB) = system: Mtb. 9449/2007 (MDR-TB)
Mtb. 7357/1998 (MDR-TB) = system: Mtb. 7357/1998 (MDR-TB)
Mtb. 8666/2010 (MDR-TB) = system: Mtb. 8666/2010 (MDR-TB)
Mtb. Praha 131 (XDR-TB) = system: Mtb. Praha 131 (XDR-TB)
Mtb. Praha 4 (MDR-TB) = system: Mtb. Praha 4 (MDR-TB)
Mtb. Praha 1 (MDR-TB) = system: Mtb. Praha 1 (MDR-TB)
Mtb. 234/2005 (MDR-TB) = system: Mtb. 234/2005 (MDR-TB)
[1] = 336 h, read-out: MIC Mtb. 9449/2007 14 d
[2] = 504 h, read-out: MIC Mtb. 9449/2007 21 d
[3] = 336 h, read-out: MIC Mtb. 7357/1998 14 d
[4] = 504 h, read-out: MIC Mtb. 7357/1998 21 d
[5] = 336 h, read-out: MIC Mtb. 8666/2010 14 d
[6] = 504 h, read-out: MIC Mtb. 8666/2010 21 d
[7] = 336 h, read-out: MIC Mtb. Praha 131 14 d
[8] = 504 h, read-out: MIC Mtb. Praha 131 21 d
[9] = 336 h, read-out: MIC Mtb. Praha 4 14 d
[10] = 504 h, read-out: MIC Mtb. Praha 4 21 d
[11] = 336 h, read-out: MIC Mtb. Praha 1 14 d
[12] = 504 h, read-out: MIC Mtb. Praha 1 21 d
[13] = 336 h, read-out: MIC Mtb. 234/2005 14 d
[14] = 504 h, read-out: MIC Mtb. 234/2005 21 d

| Compound | MIC (Mtb. 9449/2007 (MDR-TB); [1]) [µM] | MIC (Mtb. 9449/2007 (MDR-TB); [2]) [µM] | MIC (Mtb. 7357/1998 (MDR-TB); [3]) [µM] | MIC (Mtb. 7357/1998 (MDR-TB); [4]) [µM] | MIC (Mtb. 8666/2010 (MDR-TB); [5]) [µM] | MIC (Mtb. 8666/2010 (MDR-TB); [6]) [µM] | MIC (Mtb. Praha 131 (XDR-TB); [7]) [µM] | MIC (Mtb. Praha 131 (XDR-TB); [8]) [µM] | MIC (Mtb. Praha 4 (MDR-TB); [9]) [µM] | MIC (Mtb. Praha 4 (MDR-TB); [10]) [µM] | MIC (Mtb. Praha 1 (MDR-TB); [11]) [µM] | MIC (Mtb. Praha 1 (MDR-TB); [12]) [µM] | MIC (Mtb. 234/2005 (MDR-TB); [13]) [µM] | MIC (Mtb. 234/2005 (MDR-TB); [14]) [µM] | further results |
| --- | --- | --- | --- | --- | --- | --- | --- | --- | --- | --- | --- | --- | --- | --- | --- |
| C/C(=N\NC(=O)c1ccncc1)C(=O)Oc1cccc2ccccc12 [3i, Naphthalen-1-yl (E)-2-(2-isonicotinoylhydrazineylidene)propanoate] | 32 (≈ 10.7 µg/mL) | 32 (≈ 10.7 µg/mL) | 16 (≈ 5.33 µg/mL) | 32 (≈ 10.7 µg/mL) | 16 (≈ 5.33 µg/mL) | 16 (≈ 5.33 µg/mL) | 32 (≈ 10.7 µg/mL) | 32 (≈ 10.7 µg/mL) | 16 (≈ 5.33 µg/mL) | 32 (≈ 10.7 µg/mL) | 64 (≈ 21.3 µg/mL) | 125 (≈ 41.7 µg/mL) | 16 (≈ 5.33 µg/mL) | 32 (≈ 10.7 µg/mL) | – |
| C/C(=N\NC(=O)c1ccncc1)C(=O)Oc1ccc2ccccc2c1 [3j, Naphthalen-2-yl (E)-2-(2-isonicotinoylhydrazineylidene)propanoate] | 32 (≈ 10.7 µg/mL) | 32 (≈ 10.7 µg/mL) | 32 (≈ 10.7 µg/mL) | 32 (≈ 10.7 µg/mL) | 16 (≈ 5.33 µg/mL) | 32 (≈ 10.7 µg/mL) | 32 (≈ 10.7 µg/mL) | 32 (≈ 10.7 µg/mL) | 32 (≈ 10.7 µg/mL) | 32 (≈ 10.7 µg/mL) | 125 (≈ 41.7 µg/mL) | 125 (≈ 41.7 µg/mL) | 16 (≈ 5.33 µg/mL) | 32 (≈ 10.7 µg/mL) | – |
| C/C(=N\NC(=O)c1ccncc1)C(=O)OCCn1c([N+](=O)[O-])cnc1C [3q, 2-(2-Methyl-5-nitro-1H-imidazol-1-yl)ethyl (E)-2-(2 isonicotinoylhydrazineylidene)propanoate] | 32 (≈ 11.5 µg/mL) | 32 (≈ 11.5 µg/mL) | 16 (≈ 5.77 µg/mL) | 32 (≈ 11.5 µg/mL) | 16 (≈ 5.77 µg/mL) | 16 (≈ 5.77 µg/mL) | 16 (≈ 5.77 µg/mL) | 32 (≈ 11.5 µg/mL) | 32 (≈ 11.5 µg/mL) | 32 (≈ 11.5 µg/mL) | 125 (≈ 45 µg/mL) | 125 (≈ 45 µg/mL) | 32 (≈ 11.5 µg/mL) | 32 (≈ 11.5 µg/mL) | – |
| C/C(=N\NC(=O)c1ccncc1)C(=O)Oc1ccc(Cl)cc1 [3g, 4-Chlorophenyl (E)-2-(2-isonicotinoylhydrazineylidene)propanoate] | 16 (≈ 5.08 µg/mL) | 16 (≈ 5.08 µg/mL) | 16 (≈ 5.08 µg/mL) | 16 (≈ 5.08 µg/mL) | 8 (≈ 2.54 µg/mL) | 16 (≈ 5.08 µg/mL) | 8 (≈ 2.54 µg/mL) | 8 (≈ 2.54 µg/mL) | 16 (≈ 5.08 µg/mL) | 16 (≈ 5.08 µg/mL) | 8 (≈ 2.54 µg/mL) | 8 (≈ 2.54 µg/mL) | 16 (≈ 5.08 µg/mL) | 32 (≈ 10.2 µg/mL) | – |
| C/C(=N\NC(=O)c1ccncc1)C(=O)Oc1cc(Cl)ccc1Oc1ccc(Cl)cc1Cl [3o, 5-Chloro-2-(2,4-dichlorophenoxy)phenyl (E)-2-(2-isonicotinoylhydrazineylidene)propanoate] | 32 (≈ 15.3 µg/mL) | 32 (≈ 15.3 µg/mL) | 32 (≈ 15.3 µg/mL) | 32 (≈ 15.3 µg/mL) | 32 (≈ 15.3 µg/mL) | 32 (≈ 15.3 µg/mL) | 32 (≈ 15.3 µg/mL) | 32 (≈ 15.3 µg/mL) | 32 (≈ 15.3 µg/mL) | 32 (≈ 15.3 µg/mL) | 125 (≈ 59.8 µg/mL) | 125 (≈ 59.8 µg/mL) | 32 (≈ 15.3 µg/mL) | 32 (≈ 15.3 µg/mL) | – |
| C/C(=N\NC(=O)c1ccncc1)C(=O)Sc1ccccc1 [3s, S-Phenyl (E)-2-(2-isonicotinoylhydrazineylidene)propanethioate] | 64 (≈ 19.2 µg/mL) | 64 (≈ 19.2 µg/mL) | 32 (≈ 9.58 µg/mL) | 64 (≈ 19.2 µg/mL) | 32 (≈ 9.58 µg/mL) | 32 (≈ 9.58 µg/mL) | 32 (≈ 9.58 µg/mL) | 64 (≈ 19.2 µg/mL) | 32 (≈ 9.58 µg/mL) | 64 (≈ 19.2 µg/mL) | 64 (≈ 19.2 µg/mL) | 125 (≈ 37.4 µg/mL) | 32 (≈ 9.58 µg/mL) | 64 (≈ 19.2 µg/mL) | – |
| C/C(=N\NC(=O)c1ccncc1)C(=O)Oc1cc(C(C)C)ccc1C [3l, 2-Isopropyl-5-methyphenyl (E)-2-(2-isonicotinoylhydrazineylidene)propanoate] | 16 (≈ 5.43 µg/mL) | 32 (≈ 10.9 µg/mL) | 16 (≈ 5.43 µg/mL) | 32 (≈ 10.9 µg/mL) | 16 (≈ 5.43 µg/mL) | 16 (≈ 5.43 µg/mL) | 32 (≈ 10.9 µg/mL) | 64 (≈ 21.7 µg/mL) | 8 (≈ 2.72 µg/mL) | 16 (≈ 5.43 µg/mL) | 32 (≈ 10.9 µg/mL) | 64 (≈ 21.7 µg/mL) | 16 (≈ 5.43 µg/mL) | 32 (≈ 10.9 µg/mL) | – |
| C/C(=N\NC(=O)c1ccncc1)C(=O)Oc1cccc2cccnc12 [3m, Quinolin-8-yl (E)-2-(2-isonicotinoylhydrazineylidene)propanoate] | 8 (≈ 2.67 µg/mL) | 8 (≈ 2.67 µg/mL) | 8 (≈ 2.67 µg/mL) | 8 (≈ 2.67 µg/mL) | 8 (≈ 2.67 µg/mL) | 8 (≈ 2.67 µg/mL) | 8 (≈ 2.67 µg/mL) | 8 (≈ 2.67 µg/mL) | 8 (≈ 2.67 µg/mL) | 8 (≈ 2.67 µg/mL) | 8 (≈ 2.67 µg/mL) | 8 (≈ 2.67 µg/mL) | 8 (≈ 2.67 µg/mL) | 8 (≈ 2.67 µg/mL) | – |
| 5-Isopropyl-2-methylphenyl (E)-2-(2-isonicotinoylhydrazineylidene)propanoate [3k] | – | – | – | – | – | – | – | – | – | – | – | – | – | – | MIC Mtb. 9449/2007 14 d (Mtb. 9449/2007 (MDR-TB); 14 d incubation): 32 µM; MIC Mtb. 9449/2007 21 d (Mtb. 9449/2007 (MDR-TB); 21 d incubation): 32 µM; MIC Mtb. 7357/1998 14 d (Mtb. 7357/1998 (MDR-TB); 14 d incubation): 32 µM; MIC Mtb. 7357/1998 21 d (Mtb. 7357/1998 (MDR-TB); 21 d incubation): 32 µM; MIC Mtb. 8666/2010 14 d (Mtb. 8666/2010 (MDR-TB); 14 d incubation): 16 µM; MIC Mtb. 8666/2010 21 d (Mtb. 8666/2010 (MDR-TB); 21 d incubation): 32 µM; MIC Mtb. Praha 131 14 d (Mtb. Praha 131 (XDR-TB); 14 d incubation): 32 µM; MIC Mtb. Praha 131 21 d (Mtb. Praha 131 (XDR-TB); 21 d incubation): 64 µM; MIC Mtb. Praha 4 14 d (Mtb. Praha 4 (MDR-TB); 14 d incubation): 16 µM; MIC Mtb. Praha 4 21 d (Mtb. Praha 4 (MDR-TB); 21 d incubation): 32 µM; MIC Mtb. Praha 1 14 d (Mtb. Praha 1 (MDR-TB); 14 d incubation): 125 µM; MIC Mtb. Praha 1 21 d (Mtb. Praha 1 (MDR-TB); 21 d incubation): 125 µM; MIC Mtb. 234/2005 14 d (Mtb. 234/2005 (MDR-TB); 14 d incubation): 32 µM; MIC Mtb. 234/2005 21 d (Mtb. 234/2005 (MDR-TB); 21 d incubation): 32 µM |
| C/C(=N\NC(=O)c1ccncc1)C(=O)Oc1ccccc1 [3b, Phenyl (E)-2-(2-isonicotinoylhydrazineylidene)propanoate] | 32 (≈ 9.07 µg/mL) | 32 (≈ 9.07 µg/mL) | 16 (≈ 4.53 µg/mL) | 16 (≈ 4.53 µg/mL) | 16 (≈ 4.53 µg/mL) | 16 (≈ 4.53 µg/mL) | 16 (≈ 4.53 µg/mL) | 16 (≈ 4.53 µg/mL) | 16 (≈ 4.53 µg/mL) | 16 (≈ 4.53 µg/mL) | 16 (≈ 4.53 µg/mL) | 16 (≈ 4.53 µg/mL) | 32 (≈ 9.07 µg/mL) | 32 (≈ 9.07 µg/mL) | – |
| CC(=O)Nc1ccc(OC(=O)C(C)=NNC(=O)c2ccncc2)cc1 [3p, 4-Acetamidophenyl 2-(2-isonicotinoylhydrazineylidene)propanoate] | 32 (≈ 10.9 µg/mL) | 64 (≈ 21.8 µg/mL) | 16 (≈ 5.45 µg/mL) | 32 (≈ 10.9 µg/mL) | 32 (≈ 10.9 µg/mL) | 32 (≈ 10.9 µg/mL) | 32 (≈ 10.9 µg/mL) | 64 (≈ 21.8 µg/mL) | 32 (≈ 10.9 µg/mL) | 32 (≈ 10.9 µg/mL) | 125 (≈ 42.5 µg/mL) | 125 (≈ 42.5 µg/mL) | 32 (≈ 10.9 µg/mL) | 64 (≈ 21.8 µg/mL) | – |
| COc1ccc(OC(=O)/C(C)=N/NC(=O)c2ccncc2)cc1 [3d, 4-Methoxyphenyl (E)-2-(2-isonicotinoylhydrazineylidene)propanoate] | 16 (≈ 5.01 µg/mL) | 16 (≈ 5.01 µg/mL) | 16 (≈ 5.01 µg/mL) | 16 (≈ 5.01 µg/mL) | 8 (≈ 2.51 µg/mL) | 16 (≈ 5.01 µg/mL) | 8 (≈ 2.51 µg/mL) | 16 (≈ 5.01 µg/mL) | 16 (≈ 5.01 µg/mL) | 32 (≈ 10 µg/mL) | 8 (≈ 2.51 µg/mL) | 16 (≈ 5.01 µg/mL) | 16 (≈ 5.01 µg/mL) | 32 (≈ 10 µg/mL) | – |
